Data from patent publication US9545438B2, “Determination of antigenicity of an inactivated virus” (Universiteit Gent, priority 2008, dated 2017).

Experiments:
MARC-145 cells = assay: Virus titration of treated PRRSV on MARC-145 cells (inactivation curve); format: cell-based; settings: four hours at 37° C.
Protocol: Formaldehyde was then removed by ultracentrifugation. Inactivation with glutaraldehyde was performed with purified virus (10^7 TCID50/ml) that was incubated for four hours at 37° C. with different concentrations (0-0.005-0.05-0.5-5 or 50 ng/ml) glutaraldehyde (Sigma) (Darnell et al., 2004). Glutaraldehyde was removed by ultracentrifugation afterwards. For inactivation with 2,2-dithiodipyridine (AT-2), purified virus (10^7 TCID50/ml) was incubated for four hours at 37° C. with different concentrations (0-10-30-100-300 or 1000 μM) AT-2 (Aldrich) (Rossio et al., 1998; Chertova et al., 2003). Afterwards, AT-2 was removed by ultracentrifugation. For inactivation by changing the pH, the pH was adjusted with HCl of 32% to pH2 and with NaOH to pH12. Purified virus (10^7 TCID50/ml) was incubated for several hours at a pH2 or at a pH12. After incubation, the pH was neutralized (Darnell et al., 2004). For inactivation of PRRSV at a certain temperature, purified virus (10^7 TCID50/ml) was incubated for several (0-6-12-24-48 or 72) hours at 37° C. […]
Virus titration was performed in a 96-well plate with a confluent monolayer of MARC-145 cells. […] After three to five days incubation at 37° C., the occurrence of cytopathic effect (CPE) was investigated and the 50% tissue culture infective dose (TCID50) could be calculated. […]

macrophages = assay: Attachment, internalization, fusion and replication of inactivated PRRSV in macrophages by immunostaining and confocal microscopy; format: cell-based, porcine; settings: 1 hpi
Text: The European strain Lelystad virus (LV) of PRRSV (Wensvoort et al., 1991) grown on MARC-145 cells (5th passage) was used for inactivation. MARC-145 cells cultivated in minimum Eagle's medium (MEM) with 5% FCS, 1% glutamine, 1% penicillin-streptomycin and 1% kanamycin were used for LV production and titration of inactivated virus. Attachment and internalization of the inactivated virus was investigated in macrophages that where cultivated in medium containing RPMI 1640, 10% FCS, 1% penicillin-streptomycin, 1% kanamycin, 1% gentamycin, 1% tylosin, 1% glutamine, 1% nonessential amino acids and 1% sodium pyruvate for 24 hours before inoculation. When CHO cells were used, the cells were cultivated in F12 with 10% FCS, 1% penicillin-streptomycin, 1% kanamycin, 1% glutamine, and 1% sodium pyruvate and were transfected with sialoadhesin. As the macrophages, the CHO cells were also cultivated 24 hours before inoculation. […]
Macrophages, CHO^Sn or CHO^Sn-CD163 cells were seeded at 200,000 cells/ml in a 24-well plate with insert. […] The virus particles were counted with a confocal microscope.

[1] = system: CHO^Sn-CD163 cell line IC5; assay: Binding, internalization, fusion and infection in CHO^Sn-CD163 cell line IC5; format: cell-based, Chinese Hamster
Protocol: (§1) Macrophages or CHO cells (including CHO^Sn and CHO^Sn-CD163 cells, i.e., the CHO cells expressing sialoadhesin and CD163 deposited on May 14, 2008 at the Belgian Coordinated Collections of Microorganisms as CHO^Sn/CD163 IC5; CHO^Sn/CD163 ID9 and CHO^Sn/CD163 IF3 with the respective accession numbers (LMBP 6677CB, LMBP 6678CB, and […]) were incubated for one hour at 37° C. with the treated PRRSV and fixed with methanol. Then the capsid protein was stained with a primary antibody P3/27 and a secondary antibody goat-anti-mouse FITC. Confocal analysis was performed to determine the amount of internalized PRRSV.
(§2) Macrophages, CHO^Sn or CHO^Sn-CD163 cells were seeded at 200,000 cells/ml in a 24-well plate with insert. After two days, the cells were inoculated with wild-type Lelystad Virus (LV) grown on MARC-145 cells and inactivated LV grown on MARC-145 cells. The cells were fixed with methanol after one hour at 4° C. (binding; 0 hpi), one hour at 37° C. (internalization), five hours at 37° C. […] (infection) and 24 hours at 37° C. (infection). The virus was stained with a primary antibody P3/27 (anti-capsid) and a secondary antibody goat-anti-mouse FITC. The virus particles were counted with a confocal microscope.

[2] = system: CHO^Sn-CD163 cell line ID9; assay: Binding, internalization, fusion and infection in CHO^Sn-CD163 cell line ID9; format: cell-based, Chinese Hamster
Protocol: as §1, §2

[3] = system: CHO^Sn-CD163 cell line IF3; assay: Binding, internalization, fusion and infection in CHO^Sn-CD163 cell line IF3; format: cell-based, Chinese Hamster
Protocol: as §1, §2

For `C=O` [formaldehyde], the “infectious virus detected by titration” value (MARC-145 cells; lowest concentration of 10 pg/ml formaldehyde) was “no infectious virus detected”, the internalization in macrophages (macrophages; 0.1 ng/ml formaldehyde) was “no longer able to internalize” and the “Binding (particles counted at 0 hpi)” value [1] was 0 particles. For the same compound, the “Fusion (particles counted at 5 hpi)” value [1] was 0 particles, the “Infection 12 hpi (%)” value [1] was 0% and the “Infection 24 hpi (%)” value [1] was 0%. For the same compound, the “Internalization (particles counted at 1 hpi)” value [1] was 0 particles, the “Binding (particles counted at 0 hpi)” value [2] was 2 particles and the “Fusion (particles counted at 5 hpi)” value [2] was 0 particles. For the same compound, the “Infection 12 hpi (%)” value [2] was 0%, the “Infection 24 hpi (%)” value [2] was 0% and the “Internalization (particles counted at 1 hpi)” value [2] was 0 particles. The “Binding (particles counted at 0 hpi)” value [3] was 1 particles, the “Fusion (particles counted at 5 hpi)” value [3] was 1 particles and the “Infection 12 hpi (%)” value [3] was 0%. The “Infection 24 hpi (%)” value [3] was 0% and the “Internalization (particles counted at 1 hpi)” value [3] was 0 particles.
With `O=CCCCC=O` [glutaraldehyde] the “infectious virus detected by titration” value (MARC-145 cells; 0.5 ng/ml glutaraldehyde or more) was “no infectious virus could be detected”, the internalization in macrophages (macrophages; 50 ng/ml glutaraldehyde) was “no longer able to internalize” and the “Binding (particles counted at 0 hpi)” value [1] was 1 particles. The “Fusion (particles counted at 5 hpi)” value [1] was 0 particles, the “Infection 12 hpi (%)” value [1] was 0% and the “Infection 24 hpi (%)” value [1] was 0%. The “Internalization (particles counted at 1 hpi)” value [1] was 0 particles, the “Binding (particles counted at 0 hpi)” value [2] was 0 particles and the “Fusion (particles counted at 5 hpi)” value [2] was 0 particles. For the same compound, the “Infection 12 hpi (%)” value [2] was 0%, the “Infection 24 hpi (%)” value [2] was 0% and the “Internalization (particles counted at 1 hpi)” value [2] was 0 particles. The “Binding (particles counted at 0 hpi)” value [3] was 2 particles, the “Fusion (particles counted at 5 hpi)” value [3] was 1 particles and the “Infection 12 hpi (%)” value [3] was 0%. The “Infection 24 hpi (%)” value [3] was 0% and the “Internalization (particles counted at 1 hpi)” value [3] was 0 particles.
